Residues, ends and D or L forms follow the SMILES beside them.
Experiments:
[1] = Method for Testing Solubilization: time required for completely dissolving crushed α-APM sample in water; assay type: physicochemical; conditions: 26±2° C.; for time required for completely dissolving the sample (solubilization test): 250 mg crushed sample in 250 ml purified water, magnetic stirrer 350-360 rpm, stirring and standing alternated every 30 seconds; for Solubilization (minutes), Table 1 / Solubilization (min), Table 2: 250 mg in 250 ml purified water, stirring/standing every 30 seconds
Procedure: Crushed α-APM sample (250 mg) is poured into 250 ml of purified water at 26±2° C. with stirring by a magnetic stirrer at 350- 360 rpm. Stirring and standing are alternately repeated for every 30 seconds and the time required for completely dissolving the sample is measured.

[2] = Hard block formation on drying; assay type: physicochemical; conditions: dry crystalline α-APM
[3] = crystallized by cooling without forced flow, Japanese Laid-Open Patent No. 177952/1983; cited from earlier work
[4] = Thermal stability in solution (diketopiperazine formation); assay type: physicochemical; conditions: aqueous medium, temperatures higher than 70° C.
[5] = pH; cited from earlier work
[6] = Solubilization of conventionally recrystallized α-APM (background); assay type: physicochemical; conditions: 250 mg in 250 ml water, room temperature
Source text: α-APM purified by conventional recrystallization methods has the disadvantage of poor solubilization (rate of solution) in water.

SMILES	time required for completely dissolving the sample (solubilization test) [1]	further results
COC(=O)[C@H](Cc1ccccc1)NC(=O)[C@@H](N)CC(=O)O [Example 1, α-L-aspartyl-L-phenylalanine methyl ester] (H-Asp-Phe-OMe)	≤ 5 min	
COC(=O)[C@H](Cc1ccccc1)NC(=O)[C@@H](N)CC(=O)O [Example 2, α-L-aspartyl-L-phenylalanine methyl ester] (H-Asp-Phe-OMe)	≤ 5 min	
COC(=O)[C@H](Cc1ccccc1)NC(=O)[C@@H](N)CC(=O)O [Example 3, α-L-aspartyl-L-phenylalanine methyl ester] (H-Asp-Phe-OMe)	≤ 5 min	
COC(=O)[C@H](Cc1ccccc1)NC(=O)[C@@H](N)CC(=O)O [Example 4, α-L-aspartyl-L-phenylalanine methyl ester] (H-Asp-Phe-OMe)	≤ 5 min	
COC(=O)[C@H](Cc1ccccc1)NC(=O)[C@@H](N)CC(=O)O [Example 5, α-L-aspartyl-L-phenylalanine methyl ester] (H-Asp-Phe-OMe)		Solubilization (minutes), Table 1 ([1]; listed as Ex. 5): 6.5 min
COC(=O)[C@H](Cc1ccccc1)NC(=O)[C@@H](N)CC(=O)O [Example 6, α-L-aspartyl-L-phenylalanine methyl ester] (H-Asp-Phe-OMe)		Solubilization (minutes), Table 1 ([1]; listed as Ex. 6): 6.5 min
COC(=O)[C@H](Cc1ccccc1)NC(=O)[C@@H](N)CC(=O)O [Example 7, α-L-aspartyl-L-phenylalanine methyl ester] (H-Asp-Phe-OMe)		Solubilization (minutes), Table 1 ([1]; listed as Ex. 7): 4.5 min
COC(=O)[C@H](Cc1ccccc1)NC(=O)[C@@H](N)CC(=O)O [Example 8, α-L-aspartyl-L-phenylalanine methyl ester] (H-Asp-Phe-OMe)		Solubilization (minutes), Table 1 ([1]; listed as Ex. 8): 5.5 min
COC(=O)[C@H](Cc1ccccc1)NC(=O)[C@@H](N)CC(=O)O [Example 9, α-L-aspartyl-L-phenylalanine methyl ester] (H-Asp-Phe-OMe)		Solubilization (minutes), Table 1 ([1]; listed as Ex. 9): 7.5 min
COC(=O)[C@H](Cc1ccccc1)NC(=O)[C@@H](N)CC(=O)O [Example 10, α-L-aspartyl-L-phenylalanine methyl ester] (H-Asp-Phe-OMe)		Solubilization (minutes), Table 1 ([1]; listed as Ex. 10): 5.5 min
COC(=O)[C@H](Cc1ccccc1)NC(=O)[C@@H](N)CC(=O)O [Example 11, α-L-aspartyl-L-phenylalanine methyl ester] (H-Asp-Phe-OMe)	6.5 min	
COC(=O)[C@H](Cc1ccccc1)NC(=O)[C@@H](N)CC(=O)O [Example 12, α-L-aspartyl-L-phenylalanine methyl ester] (H-Asp-Phe-OMe)	5.5 min	
COC(=O)[C@H](Cc1ccccc1)NC(=O)[C@@H](N)CC(=O)O [Example 13, α-L-aspartyl-L-phenylalanine methyl ester] (H-Asp-Phe-OMe)	5.5 min	
COC(=O)[C@H](Cc1ccccc1)NC(=O)[C@@H](N)CC(=O)O [Example 14, α-L-aspartyl-L-phenylalanine methyl ester] (H-Asp-Phe-OMe)	6.5 min	
COC(=O)[C@H](Cc1ccccc1)NC(=O)[C@@H](N)CC(=O)O [Example 15, α-L-aspartyl-L-phenylalanine methyl ester] (H-Asp-Phe-OMe)	5.5 min	
COC(=O)[C@H](Cc1ccccc1)NC(=O)[C@@H](N)CC(=O)O [Example 16, α-L-aspartyl-L-phenylalanine methyl ester] (H-Asp-Phe-OMe)	≤ 5 min	
COC(=O)[C@H](Cc1ccccc1)NC(=O)[C@@H](N)CC(=O)O [Example 17, α-L-aspartyl-L-phenylalanine methyl ester] (H-Asp-Phe-OMe)	≤ 5 min	

SMILES	time required for completely dissolving the sample (solubilization test) [1]	further results
COC(=O)[C@H](Cc1ccccc1)NC(=O)[C@@H](N)CC(=O)O [Example 18, α-L-aspartyl-L-phenylalanine methyl ester] (H-Asp-Phe-OMe)	≤ 5 min	
COC(=O)[C@H](Cc1ccccc1)NC(=O)[C@@H](N)CC(=O)O [Example 19, α-L-aspartyl-L-phenylalanine methyl ester] (H-Asp-Phe-OMe)		Solubilization (min), Table 2 [1]: 5.5 min
COC(=O)[C@H](Cc1ccccc1)NC(=O)[C@@H](N)CC(=O)O [Example 20, α-L-aspartyl-L-phenylalanine methyl ester] (H-Asp-Phe-OMe)		Solubilization (min), Table 2 [1]: 5.5 min
COC(=O)[C@H](Cc1ccccc1)NC(=O)[C@@H](N)CC(=O)O [Example 21, α-L-aspartyl-L-phenylalanine methyl ester] (H-Asp-Phe-OMe)		Solubilization (min), Table 2 [1]: 5.5 min
COC(=O)[C@H](Cc1ccccc1)NC(=O)[C@@H](N)CC(=O)O [Example 22, α-L-aspartyl-L-phenylalanine methyl ester] (H-Asp-Phe-OMe)		Solubilization (min), Table 2 [1]: 5.0 min
COC(=O)[C@H](Cc1ccccc1)NC(=O)[C@@H](N)CC(=O)O [Example 23, α-L-aspartyl-L-phenylalanine methyl ester] (H-Asp-Phe-OMe)	≤ 5 min	
COC(=O)[C@H](Cc1ccccc1)NC(=O)[C@@H](N)CC(=O)O [compound 1, α-L-aspartyl-L-phenylalanine methyl ester, reference compound] (H-Asp-Phe-OMe)	12.5 min	
COC(=O)[C@H](Cc1ccccc1)NC(=O)[C@@H](N)CC(=O)O [compound 2, α-L-aspartyl-L-phenylalanine methyl ester, reference compound] (H-Asp-Phe-OMe)	11.5 min	
COC(=O)[C@H](Cc1ccccc1)NC(=O)[C@@H](N)CC(=O)O [compound 3, α-L-aspartyl-L-phenylalanine methyl ester, reference compound] (H-Asp-Phe-OMe)	12.5 min	
COC(=O)[C@H](Cc1ccccc1)NC(=O)[C@@H](N)CC(=O)O [compound 4, α-L-aspartyl-L-phenylalanine methyl ester, reference compound] (H-Asp-Phe-OMe)	13.5 min	
COC(=O)[C@H](Cc1ccccc1)NC(=O)[C@@H](N)CC(=O)O [compound 5, α-L-aspartyl-L-phenylalanine methyl ester, reference compound] (H-Asp-Phe-OMe)		Solubilization (minutes), Table 1 ([1]; listed as Comp. Ex. 5): 12.5 min
COC(=O)[C@H](Cc1ccccc1)NC(=O)[C@@H](N)CC(=O)O [compound 6, α-L-aspartyl-L-phenylalanine methyl ester, reference compound] (H-Asp-Phe-OMe)		Solubilization (minutes), Table 1 ([1]; listed as Comp. Ex. 6): 13.5 min
COC(=O)[C@H](Cc1ccccc1)NC(=O)[C@@H](N)CC(=O)O [compound 7, α-L-aspartyl-L-phenylalanine methyl ester, reference compound] (H-Asp-Phe-OMe)	13.5 min	
COC(=O)[C@H](Cc1ccccc1)NC(=O)[C@@H](N)CC(=O)O [compound 8, α-L-aspartyl-L-phenylalanine methyl ester, reference compound] (H-Asp-Phe-OMe)	12.5 min	
COC(=O)[C@H](Cc1ccccc1)NC(=O)[C@@H](N)CC(=O)O [compound 9, α-L-aspartyl-L-phenylalanine methyl ester, reference compound] (H-Asp-Phe-OMe)	12 min	
COC(=O)[C@H](Cc1ccccc1)NC(=O)[C@@H](N)CC(=O)O [α-APM, α-L-aspartyl-L-phenylalanine methyl ester] (H-Asp-Phe-OMe)		hard block formation in the dry state [2]: forms a hard block in the dry state; solubilization compared to conventionally crystallized product [3]: excellent solubilization as compared to conventionally crystallized product; thermal stability in solution [4]: diketopiperazine compound is undesirably formed as by-product; isoelectric point [5]: 5.6; time required to dissolve completely ([6]; crushed powder recrystallized from 50 vol. % aqueous methanol, stirring and standing every 30 seconds): more than 15 minutes; undissolved α-APM after 5 minutes ([6]; recrystallized from 50 vol. % aqueous methanol): a significant amount of undissolved α-APM remains even after 5 minutes
